Reference: patent US20090227619A1, “Harmine derivatives, intermediates used in their preparations, preparation processes and use therefo” (priority 2003, published 2009)
Values joined by “and” are separate entries in the source; they are usually repeats but may differ in a detail not shown here. Equal entries are not always repeated. Where two headings read alike, the source gives them in different places.

Columns and labels:
HepG2 = test: In vitro cytotoxicity, IC50 by MTT method, HepG2; assay type: cell-based, human
Outline: (§1)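 MTT viability, 48 h exposure: cells 10^5/ml in RPMI1640 + 10% FBS, 37 °C/5% CO2; MTT 4 h, DMSO solubilisation, A490.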

PLA-801 = test: In vitro cytotoxicity, IC50 by MTT method, PLA-801; assay type: cell-based
Outline: as §1

Bel-7402 = test: In vitro cytotoxicity, IC50 by MTT method, Bel-7402; assay type: cell-based
Outline: as §1

BGC-823 = test: In vitro cytotoxicity, IC50 by MTT method, BGC-823; assay type: cell-based
Outline: as §1

Hela = test: In vitro cytotoxicity, IC50 by MTT method, Hela; assay type: cell-based
Outline: as §1

Lovo = test: In vitro cytotoxicity, IC50 by MTT method, Lovo; assay type: cell-based
Outline: as §1

NIH3T3 = test: In vitro cytotoxicity, IC50 by MTT method, NIH3T3; assay type: cell-based
Outline: as §1

CT-DNA = test: DNA thermal denaturation, determination of ΔTm; assay type: binding; settings: CT-DNA thermal denaturation; 20 uM compound; Tm of CT-DNA alone 61° C.
Procedure: Experiments were carried out in PE buffer (1 mM Na2HPO4, 0.1 mM EDTA, pH 7.6) in a thermostatically controlled cell hold, and the quartz cuvette (1 cm path length) was heated by circulating water at a heating rate of 0.5° C./min from 25 to 95° C. Amsacrine and Doxorubicin Hydrochloride were used as standards. In all cases, the concentration of CT-DNA was 15 ug/ml. The ‘melting’ temperature Tm was taken as the mid-point of the hyperchromic transition.
ΔTm=Tm^drug-DNA complex−Tm^DNA alone
The ΔTm of each compound was calculated, Experiments were repeated three times, and an average value was calculated.

[1] = Homo sapiens, HepG2 cell strain, read-out: IC50 HepG2
[2] = PLA-801 cell strain, read-out: IC50 PLA-801
[3] = Homo sapiens, Bel-7402, Bel7402 cell strain, read-out: IC50 Bel7402
[4] = Homo sapiens, BGC-823, BGC823 cell strain, read-out: IC50 BGC823
[5] = Homo sapiens, Hela cell strain, read-out: IC50 Hela
[6] = Homo sapiens, Lovo cell strain, read-out: IC50 Lovo
[7] = Mus musculus, NIH3T3 cell strain, read-out: IC50 NIH3T3
[8] = Homo sapiens, HepG2, MTT, read-out: IC50
[9] = Homo sapiens, Bel-7402, BeI7402, MTT, read-out: IC50
[10] = Homo sapiens, BGC-823, BGC823, MTT, read-out: IC50
[11] = Homo sapiens, Hela, MTT, read-out: IC50
[12] = Homo sapiens, Lovo, MTT, read-out: IC50
[13] = Mus musculus, NIH3T3, MTT, read-out: IC50

melting point | Structure (SMILES) | IC50 (HepG2; [1]) | IC50 (PLA-801; [2]) | IC50 (Bel-7402; [3]) | IC50 (BGC-823; [4]) | IC50 (Hela; [5]) | IC50 (Lovo; [6]) | IC50 (NIH3T3; [7]) | IC50 (PLA-801; PLA-801, MTT, read-out: IC50) | further results
201 to 202 °C | CCn1c2ccccc2c2cc(C(=O)O)ncc21 [Compound 35, 9-ethyl-β-carboline-3-carboxylic acid] | 180 µM | 210 µM | 230 µM | 160 µM | 180 µM | 60 µM | 140 µM |  | 
169 to 170 °C | CCn1c2ccccc2c2cc(C(=O)OC)nc(-c3ccccc3)c21 [Compound 77, methyl 1-phenyl-9-ethyl-β-carboline-3-carboxylate] | > 3000 µM | > 3000 µM | 380 µM | > 3000 µM | 2660 µM | 70 µM | 140 µM |  | 
233 to 236 °C | CCNC1(C(N)=O)C=C2C(=Nc3ccccc32)C=N1 (stereo not drawn) [Compound 19, 3-ethylamino-β-carboline-3-formamide] |  |  |  |  |  |  |  | 140 µM | IC50 (HepG2; [8]): 80 µM; IC50 (Bel-7402; [9]): 160 µM; IC50 (BGC-823; [10]): 80 µM; IC50 (Hela; [11]): 90 µM; IC50 (Lovo; [12]): 100 µM; IC50 (NIH3T3; [13]): 200 µM
 | COc1ccc2c3ccnc(C)c3n(Cc3c(F)c(F)c(F)c(F)c3F)c2c1 [Compound 7, 9-(2′,3′,4′,5′,6′-pentafluoro)benzyl-7-methoxy-1-methyl-β-carboline] |  |  |  |  |  |  |  | 420 µM | IC50 (HepG2; HepG2, MTT, read-out: IC50): 50 µM; IC50 (Bel-7402; BeI7402, MTT, read-out: IC50): 40 µM; IC50 (BGC-823; BGC823, MTT, read-out: IC50): 20 µM; IC50 (Hela; Hela, MTT, read-out: IC50): 40 µM; IC50 (Lovo; Lovo, MTT, read-out: IC50): 40 µM; IC50 (NIH3T3; NIH3T3, MTT, read-out: IC50): 50 µM; ΔTm (CT-DNA): 7.5 °C
158 to 159 °C | CCCc1nc(C(=O)OCC)cc2c3ccccc3n(Cc3ccccc3)c12 [Compound 70, ethyl 9-benzyl-1-propyl-β-carboline-3-carboxylate] | 790 µM | 160 µM | 1010 µM | 1010 µM | 810 µM | 1170 µM | 1570 µM |  | 
267 to 269 °C | Cn1c2ccccc2c2cc(C(=O)O)ncc21 [Compound 34, 9-methyl-β-carboline-3-carboxylic acid] | 150 µM | 270 µM | 330 µM | 130 µM | 90 µM | 90 µM | 130 µM |  | 
105 to 106 °C and 104 to 105 °C | CCCCOC(=O)c1cc2c3ccccc3n(Cc3ccccc3)c2cn1 [Compound 41, butyl 9-benzyl-β-carboline-3-carboxylate] | > 3000 µM | 990 µM | > 3000 µM | > 3000 µM | > 3000 µM | 1080 µM | > 3000 µM |  | 
209 to 210 °C | CCOC(=O)c1cc2c([nH]c3ccccc32)c(CC)n1 [Compound 12, ethyl 1-ethyl-β-carboline-3-carboxylate] |  |  |  |  |  |  |  | > 3000 µM | IC50 (HepG2; [8]): > 3000 µM; IC50 (Bel-7402; [9]): > 3000 µM; IC50 (BGC-823; [10]): > 3000 µM; IC50 (Hela; [11]): > 3000 µM; IC50 (Lovo; [12]): 1570 µM; IC50 (NIH3T3; [13]): > 3000 µM
108 to 109 °C | CCCc1nc(C(=O)OCC)cc2c3ccccc3n(C)c12 [Compound 68, ethyl 1-propyl-9-methyl-β-carboline-3-carboxylate] | 100 µM | 140 µM | 460 µM | 110 µM | 1360 µM | 60 µM | 80 µM |  | 

Structure (SMILES) | melting point | IC50 (HepG2; [1]) | IC50 (PLA-801; [2]) | IC50 (Bel-7402; [3]) | IC50 (BGC-823; [4]) | IC50 (Hela; [5]) | IC50 (Lovo; [6]) | IC50 (NIH3T3; [7]) | IC50 (PLA-801; PLA-801, MTT, read-out: IC50) | further results
CCCCn1c2ccccc2c2cc(C(=O)OC)ncc21 [Compound 28, methyl 9-n-butyl-β-carboline-3-carboxylate] | 181 to 183 °C | 460 µM | 140 µM | 430 µM | 310 µM | 290 µM | 170 µM | 80 µM |  | 
